{"source": "paper PMC6102577", "about": "“Discovery of Pyrazolo[4,3-c]quinolines Derivatives as Potential Anti-Inflammatory Agents through Inhibiting of NO Production” (Molecules : A Journal of Synthetic Chemistry and Natural …, 2018)", "key": {"RAW 264.7 cells": {"tested_on": "RAW 264.7 cells", "assay": "Cell viability (XTT method) of RAW 264.7 cells", "format": "cell-based", "conditions": "compound 10 μM, 24 h, means ± S.D.", "method": "To evaluate whether the suppressive effect of compounds on NO production is related to cell viability, Raw 264.7 cells were treated with LPS for 24 h, and washed with 500 μL of phosphate buffer solution (PBS) before resuspended in 1 mL of culture medium. Cell viability tests were run in parallel with NO production assays with an initial cell density of 5 × 10^3 cells/well in the presence or absence of test compounds at 10 μM or 0.1% DMSO as control."}, "[1]": {"assay": "NO-scavenging activity (sodium nitroprusside, nitrite by Griess reaction)", "conditions": "SNP 2.5 mM, compound 10 μM, light, room temperature, 60 min", "method": "NO-scavenging effects of pyrazolo[4,3-c]quinolines 2i and 2m were measured according to the reported method. Sodium nitroprusside (SNP) (2.5 mM) was incubated alone or in combination with tested compound (10 μM) or 1400W(10 μM) in light at room temperature for 60 min.\nTo understand the inhibitory effects of compounds 2i and 2m on NO production, sodium nitroprusside (SNP) was freshly prepared at […] in PBS was incubated alone or in combination with 10 µM of the different compounds. SNP is an inorganic complex where NO is found as NO^+ and light irradiation is necessary for the release of NO. Therefore, incubation mixtures were incubated in light at room temperature, and nitrite levels were determined after 60 min by Griess reaction.\nFigure 1 NO-scavenging effects of 1400W, compounds 2i and 2m. SNP solution (2.5 mM) in PBS was incubated alone or with tested compound (10 μM) or 1400W (10 μM) in the presence of light at room temperature for 60 min."}, "iNOS protein expression": {"tested_on": "iNOS protein expression", "assay": "LPS-induced iNOS protein expression in RAW 264.7 cells (western blot)", "format": "cell-based, murine", "conditions": "pretreated 2 h, LPS 0.1 μg/mL 24 h", "method": "(§1) The effects of compounds 2i and 2m on iNOS and COX-2 protein expression in LPS stimulated Raw 264.7 cell were assessed by western blot. Briefly, Raw 264.7 cells were pretreated with tested compound for 2 h before stimulation in the presence or absence of LPS (0.1 μg/mL). Cells were harvested and lysed with RIPA lysis buffer (50 mM Tris–Cl, pH 8.0, 150 mM NaCl, 0.1% SDS, 0.5% NP-40, 1% sodiumdeoxycholate, 1 mM phenylmethyl-sulfonylfluoride, 1 mM EDTA, no added proteinase) at 24 h after treatment. The total protein concentration in the cell lysates was measured according to the method described by Bradford. Equal amounts (15 μg) of protein were loaded and separated by using 8% SDS–PAGE and analyzed by western blot (ECL Amersham, Bensheim, Germany). The relative expression of proteins was quantified densitometrically using the software LabWorks 4.5 and was normalized againstβ-actin.\nFigure 2 Inhibition of iNOS expression by 2i and 2m in LPS-stimulated RAW 264.7 cells. Cells (5 × 10^5 cells/well) were pretreated with the indicated concentrations of tested compounds for 2 h before incubation with 0.1 μg/mL LPS for 24 h. Cell lysates were then prepared and western blots were performed using an antibody specific for murine iNOS."}, "[2]": {"tested_on": "LPS-stimulated NO production in RAW 264.7 cells", "assay": "Inhibition of LPS-induced NO production (nitrite accumulation, Griess reaction) in RAW 264.7 cells", "format": "cell-based", "conditions": "Mus musculus; for inhibition at 10 µM: RAW264.7, compound 10 μM, read-out: Percent Inhibition of NO Production at 10 μM", "method": "Treatment of Raw 264.7 cells with LPS (0.1 μg/mL) for 24 h induced NO production which were assessed by measuring the accumulation of nitrite, a stable metabolite of NO, in the media based on Griess reaction. […] However, compound 2a was also highly cytotoxic, in which the survival rate of RAW 264.7 cells was only 9% at a drug concentration of 10 μM. […] The position of substitution play an important role in which substitution at para-position is usually more favorable than its ortho- or meta- counterpart in the inhibitory activity on the LPS-induced NO production. […] Various substituted groups have been introduced on the para-position of the phenyl ring.\nRaw 264.7 cells, purchased from Bioresource Collection and Research Center, Taiwan, were cultured in DMEM, supplemented with 5% fetal bovine serum, 100 units/mL of penicillin, 100 μg/mL of streptomycin, 2 mM L-glutamine, and 1 mM non-essential amino acids in a 10-cm plate at a density of 1 × 10^6 cells/mL, at 37 °C in a humidified atmosphere containing 5% CO2.\nNitrite was measured by adding 100 μL of the Griess reagent (1% sulfanilamide and 0.1% N-(1-naphthyl)ethylenediamine dihydrochloride in 5% phosphoric acid) to 100 μL of medium for 5 min. The optical density at 550 nm (OD550) was measured with a microplate reader. Concentrations were calculated by comparison with the OD550 of a standard solution of sodium nitrite prepared in culture medium."}, "iNOS mRNA expression": {"tested_on": "iNOS mRNA expression", "assay": "LPS-induced iNOS mRNA expression in RAW 264.7 cells (RT-PCR)", "format": "cell-based", "conditions": "pretreated 2 h, LPS 0.1 μg/mL", "excerpt": "Total RNA was extracted by Trizol-Reagent (Invirogen, Carlsbad, CA, USA) according to the manufacturer’s manual. One microgram of RNA was used for the reverse transcription of first strand cDNA using the oligo dT primers. Five microliters of cDNA were used for the amplification of iNOS and GAPDH (glyceraldehyde 3-phosphate dehydrogenase) mRNA expression. The primers for rat iNOS are as follows, forward: 5′-ACTGCGTCGCTTCATTAGGT-3′ and reverse: 5′-TAGGCAAGCGCTTTACCACT-3′. The primers for rat glyceraldehydes 3-phosphate dehydrogenase are as follows, forward: 5′-ATGGCACAGTCAAGGCTGAGA-3′ reverse: 5′-AGACGCCAGTAGACTCCACGAC-3′. The amplicons were electrophoresed on a 3% agarose gel and band intensities were measured using a spectrophotometer (Thermo Fisher Scientific, Waltham, MA, USA) and normalized against GAPDH.\nFigure 3 Inhibitory effects of compound 2i and 2m on LPS-induced iNOS mRNA expression. Cells (5 × 10^5 cells/well) were pretreated with the indicated concentrations of tested compounds for 2 h before incubation with 0.1 μg/mL LPS for 9 h. Total RNA was prepared for RT-PCR analysis of iNOS mRNA expression in LPS-stimulated RAW 264.7 cells. GAPDH were used as internal controls for the RT-PCR assays3.4. Inhibition of LPS-inducible COX-2 expression."}, "COX-2 protein expression": {"tested_on": "COX-2 protein expression", "assay": "LPS-inducible COX-2 protein expression in RAW 264.7 cells (western blot)", "format": "cell-based, murine", "conditions": "pretreated 2 h, LPS 0.1 μg/mL 24 h", "method": "as §1\nFigure 4 Inhibition of COX-2 expression by compound 2i and 2m in LPS-stimulated RAW 264.7 cells. Cells (5 × 10^5 cells/well) were pretreated with the indicated concentrations of tested compounds for 2 h before incubation with 0.1 μg/mL LPS for 24 h. Cell lysates were then prepared and western blots were performed using an antibody specific for murine COX-2."}, "[3]": {"conditions": "RAW264.7, 24 h, RAW 264.7 cells, LPS 0.1 μg/mL 24 h, means ± S.D., read-out: IC50 (inhibition of LPS-induced NO production)"}, "[4]": {"conditions": "RAW264.7, training dataset, negative logarithm of IC50 values, read-out: Observed pIC50 (converted)"}, "[5]": {"conditions": "RAW 264.7 cells, LPS 0.1 μg/mL 24 h, means ± S.D."}}, "note": "Where two headings read alike, the source gives them in different places.", "data": [{"compound": "Nc1n[nH]c2c1c(Nc1ccc(O)cc1)nc1ccccc12", "note": "[Compound 2i, 3-amino-4-(4-hydroxyphenylamino)-1H-pyrazolo[4,3-c]-quinoline]", "values": [{"measurement": "Cell Survival Rate at 10 μM", "setting": "RAW 264.7 cells", "result": "87.84 ± 0.15", "unit": "%"}, {"measurement": "NO-scavenging effect (levels of nitrite from SNP)", "setting": "[1]", "result": "did not affect the levels of nitrite"}, {"measurement": "Inhibition of LPS-induced iNOS protein expression", "setting": "iNOS protein expression", "result": "more potent inhibitory activities than 2m"}, {"measurement": "IC50", "setting": "[2]; [3]", "result": "190 ± 50", "unit": "nM"}, {"measurement": "IC50", "setting": "[2]; [4]", "result": 190, "unit": "nM"}, {"measurement": "inhibition at 10 µM", "setting": "[2]; [5]", "result": "102 ± 2.63", "unit": "%"}, {"measurement": "Inhibition of LPS-stimulated iNOS mRNA expression", "setting": "iNOS mRNA expression", "result": "inhibited the LPS-stimulated iNOS mRNA production in a dose-dependent manner"}, {"measurement": "Inhibition of LPS-induced COX-2 protein expression", "setting": "COX-2 protein expression", "result": "effectively suppressed the induction of COX-2 protein expression by LPS"}]}, {"compound": "Nc1n[nH]c2c1c(Nc1ccc(C(=O)O)cc1)nc1ccccc12", "note": "[Compound 2m, 4-(3-amino-1H-pyrazolo[4,3-c]quinolin-4-ylamino)benzoic acid]", "values": [{"measurement": "Cell Survival Rate at 10 μM", "setting": "RAW 264.7 cells", "result": "85.42 ± 0.77", "unit": "%"}, {"measurement": "NO-scavenging effect (levels of nitrite from SNP)", "setting": "[1]", "result": "did not affect the levels of nitrite"}, {"measurement": "IC50", "setting": "[2]; [3]", "result": "220 ± 70", "unit": "nM"}, {"measurement": "IC50", "setting": "[2]; [4]", "result": 250, "unit": "nM"}, {"measurement": "inhibition at 10 µM", "setting": "[2]; [5]", "result": "87.7 ± 9.93", "unit": "%"}, {"measurement": "Inhibition of LPS-stimulated iNOS mRNA expression", "setting": "iNOS mRNA expression", "result": "inhibited the LPS-stimulated iNOS mRNA production in a dose-dependent manner"}, {"measurement": "Inhibition of LPS-induced COX-2 protein expression", "setting": "COX-2 protein expression", "result": "effectively suppressed the induction of COX-2 protein expression by LPS"}]}]}
